Patent US20070141129A1, “Wound care product comprising a substance which inhibits the growth of bacteria in wounds” (priority 2003, published 2007)
“Also recorded” adds a separate entry of the source.

Legend:
group G streptococci = assay: growth of group G streptococci in BHI broth with added xylitol; format: cell-based; details: xylitol added to BHI, 1-10% (FIG. 4)
Description: (§1) The bacterial strains were stored at −70° C. Immediately prior to each experiment, these strains were taken out and placed on a blood plate and incubated overnight at 35° C. The same incubator was used in all the experiments. After that, a loop of the colonies which had grown was incubated in brain heart infusion (BHI) broth for 18 hours. 100 μl of this broth were inoculated into 3-5 ml of fresh BHI broth with or without the addition of xylitol. Different contents of xylitol were added. As is evident from FIGS. 1-5, the contents of xylitol were 1%, 2.5%, 5% and 10%.
(§2) The transmittance or translucency was measured from hour 0, and after that every hour, for 6 hours on a Biolog turbidimeter from the company Biolog Inc., Hayward, Calif., USA. The growth of bacteria reduces the translucency, i.e. the lower the transmittance the greater the growth of the bacteria.
(§3) At 0 hours and at 6 hours, 100 μl of the broth were cultured and the number of live bacteria was counted. The transmittance value and the quantity of bacteria (colony forming units/ml) in tubes with and without xylitol were then compared.

VRE = assay: growth of VRE with xylitol; format: cell-based, vancocin-resistant enterococci
Description: as §1, §2, §3

[1] = tested on: S. aureus (including MRSA), group A, B, C and G streptococci, enterococci (including VRE) and Pseudomonas aeruginosa; assay: growth of wound infection bacteria in nutrient-rich medium with added xylitol; format: cell-based; details: xylitol (1-10%) in nutrient-rich medium
Description: as §1, §2, §3

[2] = tested on: beta-haemolytic streptococci, including group B streptococci; assay: growth of beta-haemolytic streptococci with xylitol; format: cell-based
Description: as §1, §2, §3

[3] = tested on: S. aureus (multiresistant), MRSA strain; assay: growth of multiresistant S. aureus (MRSA strain) in BHI broth with added xylitol (transmittance); format: cell-based, Staphylococcus aureus
Description: as §1, §2, §3

[4] = tested on: epithelial cells in the skin; details: cited from earlier work
P. aeruginosa = assay: growth of P. aeruginosa in BHI broth with added xylitol; format: cell-based, Pseudomonas aeruginosa; details: xylitol added to BHI, 1-10% (FIG. 5)
Description: as §1, §2, §3

S. aureus [5] = assay: growth of S. aureus in BHI broth with added xylitol (transmittance); format: cell-based, Staphylococcus aureus
Description: as §1, §2, §3

S. aureus [6] = details: cited from earlier work
bacteria = details: bacteriological tests; cited from earlier work
[7] = tested on: intestinal bacteria which cause diarrhoea, bacteria which give rise to ear inflammations, yeast fungus; details: cited from earlier work
alpha-streptococci = details: oral flora; uptake via fructose phosphotransferase system; cited from earlier work
[8] = children, clinical study; cited from earlier work
[9] = toxicity assessed as so low; cited from earlier work
group B streptococci = assay: growth of group B streptococci in BHI broth with added xylitol; format: cell-based; details: xylitol added to BHI, 1-10% (FIG. 3)
Description: as §1, §2, §3

OC[C@@H](O)[C@H](O)[C@@H](O)CO [xylitol]
inhibition of growth of the bacteria (group G streptococci): very effective in inhibiting the growth | inhibition of growth of the bacteria (VRE): effective in combating the growth | reduction of growth, factor [1]: ≤ 1000 | effect against the bacteria [2]: also effective | translucency after 6 hours ([3]; 10% added xylitol, 6 hours, without xylitol approx. 30% (FIG. 2)): more than 70% | inhibition of growth of the bacteria ([3]; xylitol added to nutrient solution, 1-10%): effective in combating the growth; also recorded: inhibited very effectively | absorption by epithelial cells in the skin [4]: only absorbed to a very slight extent | inhibition of growth of the bacteria (P. aeruginosa): effective in combating the growth; also recorded: very effective in inhibiting the growth | bacterial growth after 2 hours (S. aureus [5]; BHI containing 10% added xylitol, 2 hours (FIG. 1)): hardly any bacterial growth at all | translucency (transmittance) after 6 hours (S. aureus [5]; BHI nutrient solution, 10% xylitol added, 6 hours, without xylitol 20 (FIG. 1)): more than 60% | production of glycocalyx (S. aureus [6]): decrease | mutagenic properties (increase in natural mutation frequency) (bacteria): No mutagenic properties | adherence of bacteria [7]: decreases the adherence | growth of alpha-streptococci (alpha-streptococci): inhibited | reduction of the number of ear inflammations [8]: up to 40% | limit value for an acceptable daily intake [9]: no limit value | inhibition of growth of the bacteria (group B streptococci): effectively inhibited
